Consider 42 molecules from patent US20170253607A1, “LONG-ACTING HIV PROTEASE INHIBITOR” (Shionogi & Co., Ltd., priority 2014, published 2017).

Broadly, the IC50 is the concentration that inhibits the measured activity by half. High values mean a need for much substance, low ones inhibition by little substance.

Structures are written as SMILES.

This experiment has as its target HIV-1 PR (Human immunodeficiency virus type 1 group M subtype B, UniProt P04585). As to the kind of experiment: HIV-protease inhibitory activity assay (FRET peptide substrate). The conditions noted are these: Test Example 1. It counts as biochemical. The essentials:
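Inhibition of HIV-1 protease was measured as loss of fluorescence dequenching of a HiLyte Fluor 488/QXL 520 peptide at 2 μmol/L, pH 4.8, room temperature, 60 minute reaction. IC50 was derived by nonlinear four-parameter fitting.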
`COc1ccc(S(=O)(=O)N(CC(C)C)CC(O)C(Cc2ccc(NCc3nc(N4CCC4)sc3-c3sc4c(c3C(=O)O)CC(C)(C)CC4)cc2)NC(=O)OC2COC3(C)OCCC23)cc1` (stereo not drawn) [Compound I-753] returned a half-maximal inhibitory concentration (IC50) of 2.39 nM. The molecule `COc1ccc(S(=O)(=O)N(CC(C)C)CC(O)C(Cc2ccc(NCc3cc4c(cc3-c3sc5c(c3C(=O)O)CC(C)(C)CC5)OCC(=O)N4)cc2)NC(=O)OC2COC3(C)OCCC23)cc1` (stereo not drawn) [Compound I-754] returned an IC50 of 2.49 nM. In the case of `COc1ccc(S(=O)(=O)N(CC(C)C)CC(O)C(Cc2ccc(N(C)Cc3nc(N4CCCC4)ccc3-c3sc4c(c3C(=O)O)CC(C)(C)CC4)cc2)NC(=O)OC2COC3(C)OCCC23)cc1` (stereo not drawn) [Compound I-755] it was 2.69 nM; in that of `COc1ccc(S(=O)(=O)N(CC(C)C)CC(O)C(Cc2ccc(N(C)Cc3nc(N4CCCCC4)sc3-c3sc4c(c3C(=O)O)CC(C)(C)CC4)cc2)NC(=O)OC2COC3(C)OCCC23)cc1` (stereo not drawn) [Compound I-756], 3.46 nM; in that of `COc1ccc(S(=O)(=O)N(CC(C)C)CC(O)C(Cc2ccc(N(C)Cc3nc(N4CCOCC4)sc3-c3sc4c(c3C(=O)O)CC(C)(C)CC4)cc2)NC(=O)OC2COC3(C)OCCC23)cc1` (stereo not drawn) [Compound I-757], 3.02 nM. In the case of `COc1ccc(S(=O)(=O)N(CC(C)C)CC(O)C(Cc2ccc(N(C)Cc3nc(N4CCN(C)CC4)sc3-c3sc4c(c3C(=O)O)CC(C)(C)CC4)cc2)NC(=O)OC2COC3(C)OCCC23)cc1` (stereo not drawn) [Compound I-758] it was 1.62 nM; in that of `COc1ccc(S(=O)(=O)N(CC(C)C)CC(O)C(Cc2ccc(NCc3cc4c(cc3-c3sc5c(c3C(=O)O)CC(C)(C)CC5)OCC(=O)N4C)cc2)NC(=O)OC2COC3(C)OCCC23)cc1` (stereo not drawn) [Compound I-759], 2.55 nM. The molecule `COc1ccc(S(=O)(=O)N(CC(C)C)CC(O)C(Cc2ccc(NCc3nc(N(C4CCCCC4)C4CCCCC4)sc3-c3sc4c(c3C(=O)O)CC(C)(C)CC4)cc2)NC(=O)OC2COC3(C)OCCC23)cc1` (stereo not drawn) [Compound I-760] gave an IC50 of 3.38 nM. The same measure for `COc1ccc(S(=O)(=O)N(CC(C)C)CC(O)C(Cc2ccc(N(C)Cc3nc(N(C4CCCCC4)C4CCCCC4)sc3-c3sc4c(c3C(=O)O)CC(C)(C)CC4)cc2)NC(=O)OC2COC3(C)OCCC23)cc1` (stereo not drawn) [Compound I-761]: 6.76 nM; for `COc1ccc(S(=O)(=O)N(CC(C)C)CC(O)C(Cc2ccc(N(C)Cc3cc(OC)ccc3C(=O)Nc3sc4c(c3C(=O)O)CC(C)(C)CC4)cc2)NC(=O)OC2COC3(C)OCCC23)cc1` (stereo not drawn) [Compound I-762]: 6.23 nM. The same measure for `CCCCCCCCCCCCCC(=O)Nc1ccc(CNc2ccc(CC(NC(=O)OC3COC4(C)OCCC34)C(O)CN(CC(C)C)S(=O)(=O)c3ccc(OC)cc3)cc2)c(-c2sc3c(c2C(=O)O)CC(C)(C)CC3)c1` (stereo not drawn) [Compound I-763]: 3.07 nM; for `COc1ccc(S(=O)(=O)N(CC(C)C)CC(O)C(Cc2ccc(NCC3CC(C)(C)CCC3c3sc4c(c3C(=O)O)CC(C)(C)CC4)cc2)NC(=O)OC2COC3(C)OCCC23)cc1` (stereo not drawn) [Compound I-764]: 2.81 nM; for `COc1ccc(S(=O)(=O)N(CC(C)C)CC(O)C(Cc2ccc(NCC3CC(C)(C)CCC3c3sc4c(c3C(=O)O)CC(C)(C)CC4)cc2)NC(=O)OC2COC3(C)OCCC23)cc1` (stereo not drawn) [Compound I-765]: 2.96 nM. In the case of `COc1ccc(S(=O)(=O)N(CC(C)C)CC(O)C(Cc2ccc(NCc3ccccc3-c3cnc(-c4sc5c(c4C(=O)O)CC(C)(C)CC5)s3)cc2)NC(=O)OC2COC3(C)OCCC23)cc1` (stereo not drawn) [Compound I-766] it was 3.28 nM. Take `COc1ccc(S(=O)(=O)N(CC(C)C)CC(O)C(Cc2ccc(N(C)Cc3cc4c(cc3-c3sc5c(c3C(=O)O)CC(C)(C)CC5)OCC(=O)N4C)cc2)NC(=O)OC2COC3(C)OCCC23)cc1` (stereo not drawn) [Compound I-768]: 2.95 nM corresponded to half-maximal inhibition (IC50). The same measure for `COc1ccc(S(=O)(=O)N(CC(C)C)CC(O)C(Cc2ccc(N(C)CC3CC(C)(C)CCC3c3sc4c(c3C(=O)O)CC(C)(C)CC4)cc2)NC(=O)OC2COC3(C)OCCC23)cc1` (stereo not drawn) [Compound I-769]: 5.98 nM; for `COc1ccc(S(=O)(=O)N(CC(C)C)CC(O)C(Cc2ccc(N(C)CC3CC(C)(C)CCC3c3sc4c(c3C(=O)O)CC(C)(C)CC4)cc2)NC(=O)OC2COC3(C)OCCC23)cc1` (stereo not drawn) [Compound I-770]: 5.56 nM; for `COc1ccc(S(=O)(=O)N(CC(C)C)CC(O)C(Cc2ccc(N3Cc4nc5ccccc5cc4C3=O)cc2)NC(=O)OC2COC3(C)OCCC23)cc1` (stereo not drawn) [Compound I-771]: 2 nM.

The molecule `COc1ccc(S(=O)(=O)N(CC(C)C)CC(O)C(Cc2ccc(N(C)Cc3ccccc3-c3ccc(NC(=O)CC4CC(C)(C)CCC4=O)cc3)cc2)NC(=O)OC2COC3(C)OCCC23)cc1` (stereo not drawn) [Compound I-772] gave a half-inhibitory concentration (IC50) of 21 nM. The same measure for `COc1ccc(S(=O)(=O)N(CC(C)C)CC(O)C(Cc2ccc(NCc3nc4ccccc4cc3C(=O)Nc3sc4c(c3C(=O)O)CC(C)(C)CC4)cc2)NC(=O)OC2COC3(C)OCCC23)cc1` (stereo not drawn) [Compound I-774]: 6.26 nM. The same measure for `COc1ccc(S(=O)(=O)N(CC(C)C)CC(O)C(Cc2ccc(NCc3ccccc3-c3ccc(Nc4sc5c(c4C(=O)O)CC(C)(C)CC5)nc3)cc2)NC(=O)OC2COC3(C)OCCC23)cc1` (stereo not drawn) [Compound I-775]: 3.64 nM; for `COc1ccc(S(=O)(=O)N(CC(C)C)CC(O)C(Cc2ccc(N(C)Cc3ccccc3-c3ccc(Nc4sc5c(c4C(=O)O)CC(C)(C)CC5)nc3)cc2)NC(=O)OC2COC3(C)OCCC23)cc1` (stereo not drawn) [Compound I-776]: 6.4 nM; for `COc1ccc(S(=O)(=O)N(CC(C)C)CC(O)C(Cc2ccc(NCc3ccccc3NC(=O)Nc3sc4c(c3C(=O)O)CC(C)(C)CC4)cc2)NC(=O)OC2COC3(C)OCCC23)cc1` (stereo not drawn) [Compound I-779]: 2.74 nM. In the case of `COc1ccc(S(=O)(=O)N(CC(C)C)CC(O)C(Cc2ccc(OCc3ccccc3-c3sc4c(c3C(=O)O)CC(C)(C)CC4)cc2)NC(=O)OC2COC3(COC(=O)NCc4ccc(F)cc4)OCCC23)cc1` (stereo not drawn) [Compound I-784] it was 7.3 nM; in that of `CC(C)CN(CC(O)C(Cc1ccc(OCc2ccccc2-c2sc3c(c2C(=O)O)CC(C)(C)CC3)cc1)NC(=O)OC1COC2(C)OCCC12)S(=O)(=O)c1ccc2nc(NC3CCN(C4CCCC4)CC3)sc2c1` (stereo not drawn) [Compound I-792], 25 nM. For `CC(C)CN(CC(O)C(Cc1ccc(OCc2ccccc2-c2sc3c(c2C(=O)O)CC(C)(C)CC3)cc1)NC(=O)OC1COC2(C)OCCC12)S(=O)(=O)c1ccc2nc(N(C)CCc3ccccc3)sc2c1` (stereo not drawn) [Compound I-794], the 50% inhibitory concentration (IC50) came out at 38.4 nM. The same measure for `Cc1cc(OCCNc2nc3ccc(S(=O)(=O)N(CC(C)C)CC(O)C(Cc4ccccc4)NC(=O)OC4COC5(C)OCCC45)cc3s2)ccc1-c1sc2c(c1C(=O)O)CC(C)(C)CC2` (stereo not drawn) [Compound I-797]: 0.85 nM. The same measure for `COc1ccc(S(=O)(=O)N(CC(C)C)CC(O)C(Cc2ccc(OCCn3nc(C)c(-c4sc5c(c4C(=O)O)CC(C)(C)CC5)c3C)cc2)NC(=O)OC2COC3OCCC23)cc1` (stereo not drawn) [Compound I-810]: 1.03 nM; for `COc1ccc(S(=O)(=O)N(CC(C)C)CC(O)C(Cc2ccc(COc3ccc4c(c3C(=O)O)CC(C)(C)CC4)cc2)NC(=O)OC2COC3OCCC23)cc1` (stereo not drawn) [Compound I-811]: 0.81 nM; for `CC(C)CN(CC(O)C(Cc1ccc(OCc2ccc(-c3ccc(F)cc3F)cc2O)cc1)NC(=O)OC1COC2OCCC12)S(=O)(=O)c1ccc2ncsc2c1` (stereo not drawn) [Compound I-813]: 1.06 nM.

`CC(C)CN(CC(O)C(Cc1ccc(OCCOc2ccc(-c3ccc(F)cc3F)cc2C(=O)O)cc1)NC(=O)OC1COC2OCCC12)S(=O)(=O)c1ccc2ncsc2c1` (stereo not drawn) [Compound I-814] came in with an IC50 of 0.75 nM. The same measure for `COc1ccc(S(=O)(=O)N(CC(C)C)CC(O)C(Cc2ccc(OCc3ccccc3-c3sc4c(c3-c3noc(=O)[nH]3)CC(C)(C)CC4)cc2)NC(=O)OC2COC3OCCC23)cc1` (stereo not drawn) [Compound I-815]: 1.63 nM; for `CC(C)CN(CC(O)C(Cc1ccccc1)NC(=O)OC1COC2OCCC12)S(=O)(=O)c1ccc(NCc2sc3c(c2C(=O)O)CC(C)(C)CC3)cc1` (stereo not drawn) [Compound I-816]: 5.78 nM. Consider `COc1ccc(S(=O)(=O)N(CC(C)C)CC(O)C(Cc2ccc(CNC(=O)c3cc(-c4ccc(F)cc4F)ccc3O)cc2)NC(=O)OC2COC3OCCC23)cc1` (stereo not drawn) [Compound I-817], for which it took 1.56 nM to reach half-maximal inhibition (IC50).

On to `CC(C)CN(CC(O)C(Cc1ccc(OCc2sc(Oc3ccccc3)nc2C(=O)O)cc1)NC(=O)OC1COC2OCCC12)S(=O)(=O)c1ccc2ncsc2c1` (stereo not drawn) [Compound I-818], for which the IC50 turned out to be 0.64 nM. For the molecule `COc1ccc(S(=O)(=O)N(CC(C)C)CC(O)C(Cc2ccc(OCc3ccc4sc(-c5ccc(F)cc5)c(C(=O)O)c4c3)cc2)NC(=O)OC2COC3OCCC23)cc1` (stereo not drawn) [Compound I-819], inhibition was half-maximal at 0.72 nM (IC50).

On to `COc1ccc(S(=O)(=O)N(CC(C)C)CC(O)C(Cc2ccc(OCc3ccccc3-c3nc(C4=CCC(C)(C)CC4)sc3C(=O)O)cc2)NC(=O)OC2COC3OCCC23)cc1` (stereo not drawn) [Compound I-820], for which half-maximal inhibition (IC50) was put at 0.94 nM. `COc1ccc(S(=O)(=O)N(CC(C)C)CC(O)C(Cc2ccc(OCc3ccccc3-c3ccc4c(O)c(-c5ccc(Oc6ccccc6)cc5)c(=O)[nH]c4c3)cc2)NC(=O)OC2COC3OCCC23)cc1` (stereo not drawn) [Compound I-821]: the IC50 is 2.24 nM. The same measure for `COc1ccc(S(=O)(=O)N(CC(C)C)CC(O)C(Cc2ccc(OCc3ccccc3-c3ccc4c(O)c(-c5ccc(Oc6ccccc6)cc5)c(=O)n(C)c4c3)cc2)NC(=O)OC2COC3OCCC23)cc1` (stereo not drawn) [Compound I-822]: 2.08 nM. In the case of `COc1ccc(S(=O)(=O)N(CC(C)C)CC(O)C(Cc2ccc(OCc3ccccc3-c3sc(C)c(-c4ccccc4)c3C(=O)O)cc2)NC(=O)OC2COC3OCCC23)cc1` (stereo not drawn) [Compound I-824] it was 1.01 nM; in that of `COc1ccc(S(=O)(=O)N(CC(C)C)CC(O)C(Cc2ccc(OCc3ncsc3-c3sc4c(c3C(=O)O)CC(C)(C)CC4)cc2)NC(=O)OC2COC3OCCC23)cc1` (stereo not drawn) [Compound I-828], 0.96 nM. In turn, `COc1ccc(S(=O)(=O)N(CC(C)C)CC(O)C(Cc2ccc(OCc3ccccc3-c3sc4c(c3C(=O)O)C3CC(C4)C3(C)C)cc2)NC(=O)OC2COC3OCCC23)cc1` (stereo not drawn) [Compound I-829] displayed an IC50 of 1.2 nM.
